Structures can show the parent of a compound that is named as a salt.
Columns and labels:
[1] = system: SMN protein; experiment: SMN protein assay (HTRF) in cultured SMA patient fibroblast cells; format: cell-based; settings: SMA Type 1 human fibroblasts GM03813, 48 hours; for EC1.5x SMN protein (EC1.5x concentration for SMN protein expression): 7-point concentration curve, concentration giving 1.5 times SMN protein vs vehicle; for max. fold increase (maximum fold increase of SMN protein): 7-point concentration data, fold vs vehicle control
Experimental: The SMN HTRF (homogeneous time resolved fluorescence) assay is used to quantify the level of SMN protein in SMA patient fibroblast cells treated with test compounds.
Cells are thawed and cultured in DMEM-10% FBS for 72 hours. Cells are trypsinized, counted and re-suspended to a concentration of 25,000 cells/mL in DMEM-10% FBS. The cell suspensions are plated at 5,000 cells per well in a 96 well microtiter plate and incubated for 3 to 5 hours. […] 1 μL of test compound solution is transferred to cell-containing wells and cells are incubated for 48 hours in a cell culture incubator (37° C., 5% CO2, 100% relative humidity). Triplicate samples are set up for each test compound concentration. After 48 hours, the supernatant is removed from the wells and 25 μL of the RIPA lysis buffer, containing protease inhibitors, is added to the wells and incubated with shaking at room temperature for 1 hour. 25 μL of the diluent is added and then 35 μL of the resulting lysate is transferred to a 384-well plate, where each well contains 5 μL of the antibody solution (1:100 dilution of anti-SMN d2 and anti-SMN kryptate in SMN reconstitution buffer). The plate is centrifuged for 1 minute to bring the solution to the bottom of the wells, then incubated overnight at room temperature. Fluorescence for each well of the plate at 665 nm and 620 nm is measured on an EnVision multilabel plate reader (Perkin-Elmer).
The normalized fluorescence signal is calculated for each sample, Blank and vehicle control well by dividing the signal at 665 nm by the signal at 620 nm. Normalizing the signal accounts for possible fluorescence quenching due to the matrix effect of the lysate. The ΔF value (a measurement of SMN protein abundance as a percent value) for each sample well is calculated by subtracting the normalized average fluorescence for the Blank control wells from the normalized fluorescence for each sample well, then dividing this difference by the normalized average fluorescence for the Blank control wells and multiplying the resulting value by 100. The ΔF value for each sample well represents the SMN protein abundance from test compound-treated samples. The ΔF value for each sample well is divided by the ΔF value for the vehicle control wells to calculate the fold increase in SMN protein abundance relative to the vehicle control. Table 3 provides EC1.5x concentrations for SMN protein expression that was obtained from the 7-point concentration data generated according to the above procedure for particular compounds of the present invention.
Table 4 provides the maximum fold increase of SMN protein that was obtained from the 7-point concentration data generated according to the above procedure for particular compounds of the present invention

[2] = system: full length SMN2 minigene mRNA (FL SMN2mini) in HEK293H cells stably transfected with the SMN2-A minigene construct; experiment: SMN2 minigene mRNA splicing RT-qPCR assay in cultured cells; format: cell-based; settings: Homo sapiens, HEK293-H, 24 hours, 7-point concentration curve, concentration giving 1.5-fold FL SMN2mini mRNA vs vehicle, read-out: EC1.5x minigene (EC1.5x concentration for production of full length SMN2 minigene mRNA)
Experimental: The reverse transcription-quantitative PCR-based (RT-qPCR) assay is used to quantify the level of the full length SMN2 minigene (referred to herein by the term “FL SMN2mini”) mRNA containing SMN2 exon 7 in a HEK293H cell line stably transfected with said minigene and treated with a test compound.
The SMN2-A minigene construct was prepared as described in International Patent Application WO2009/151546A1 page 145 paragraph [00400] to page 147 paragraph [00412](incl. FIG. 1 and FIG. 3 therein).
HEK293H cells stably transfected with the SMN2-A minigene construct (10,000 cells/well) are seeded in 200 μL of cell culture medium (DMEM plus 10% FBS, with 200 μg/mL hygromycin) in 96-well flat-bottom plates and the plate is immediately swirled to ensure proper dispersal of cells and the formation of an even monolayer of cells. Cells are allowed to attach for 6 hours. […] A solution of test compound (1 μL, 200× in DMSO) is added to each cell-containing well and the plate is incubated for 24 hours in a cell culture incubator (37° C., 5% CO2, 100% relative humidity). 2 replicates are prepared for each test compound concentration. The cells are then lysed in the Cells-To-Ct lysis buffer and the lysate is stored at −80° C.
Full length SMN2-A minigene and GAPDH mRNA are quantified using the primers and probes referenced in Table 1. Primer SMN Forward A (SEQ ID NO.1) hybridizes to a nucleotide sequence in exon 7 (nucleotide 22 to nucleotide 40), primer SMN Reverse A (SEQ ID NO.2) hybridizes to a nucleotide sequence in the coding sequence of Firefly luciferase, SMN Probe A (SEQ ID NO.3) hybridizes to a nucleotide sequence in exon 7 (nucleotide 50 to nucleotide 54) and exon 8 (nucleotide 1 to nucleotide 21). The combination of these three oligonucleotides detects only SMN1 or SMN2 minigenes (RT-qPCR) and will not detect endogenous SMN1 or SMN2 genes.
The SMN forward and reverse primers are used at final concentrations of 0.4 μM. The SMN probe is used at a final concentration of 0.15 μM. The GAPDH primers are used at final concentrations of 0.2 μM and the probe at 0.15 μM.
The SMN2-minigene GAPDH mix (15 μL total volume) is prepared by combining 7.5 μL of 2×RT-PCR buffer, 0.4 μL of 25×RT-PCR enzyme mix, 0.75 μL of 20×GAPDH primer-probe mix, 4.0075 μL of water, 2 μL of 10-fold diluted cell lysate, 0.06 μL of 100 μM SMN forward primer, 0.06 μL of 100 μM SMN reverse primer, and 0.225 μL of 100 μM SMN probe.
PCR is carried out at the following temperatures for the indicated time: Step 1: 48° C. (15 min); Step 2: 95° C. (10 min); Step 3: 95° C. (15 sec); Step 4: 60° C. (1 min); then repeat Steps 3 and 4 for a total of 40 cycles.
Each reaction mixture contains both SMN2-A minigene and GAPDH primers/probe sets (multiplex design), allowing simultaneous measurement of the levels of two transcripts.
The increase in the abundance of the FL SMN2mini mRNA relative to that in cells treated with vehicle control is determined from real-time PCR data using a modified ΔΔCt method (as described in Livak and Schmittgen, Methods, 2001, 25:402-8). The amplification efficiency E is calculated from the slope of the amplification curve for FL SMN2mini and GAPDH individually. The abundance of FL SMN2mini and GAPDH mRNA are then calculated as (1+E)^−Ct, where Ct is the threshold value for each amplicon. The abundance of FL SMN2mini mRNA is normalized to GAPDH mRNA abundance. The normalized FL SMN2mini mRNA abundance from test compound-treated samples is then divided by normalized FL SMN2mini mRNA abundance from vehicle-treated cells to determine the level of FL SMN2mini mRNA relative to vehicle control.
Table 2 provides EC1.5x concentrations for production of full length SMN2 minigene mRNA that was obtained from the 7-point concentration data generated according to the above procedure for particular compounds of the present invention.

SMILES | EC1.5x SMN protein (EC1.5x concentration for SMN protein expression) [1] [µM] | max. fold increase (maximum fold increase of SMN protein) [1] | EC (1.5-fold) [2] [µM]
Cc1cn2cc(NC(=O)c3cnc(N4CCNC(C)C4)c(F)c3)cc(F)c2n1 (racemic) [Example 47, rac-5-fluoro-N-(8-fluoro-2-methyl-imidazo[1,2-a]-pyridin-6-yl)-6-(3-methylpiperazin-1-yl)nicotinamide hydrochloride] | 0.611 | 1.7065 | 0.396
Cc1cn2cc(NC(=O)c3ccc(N4CCN5CCC[C@H]5C4)cc3F)cc(C(F)(F)F)c2n1 [Example 35, (S)-2-fluoro-4-(hexahydro-pyrrolo[1,2-a]-pyrazin-2(1H)-yl)-N-(2-methyl-8-(trifluoro-methyl)imidazo-[1,2-a]pyridin-6-yl]benzamide] | 1.2664 | 1.6275 | 0.202
Cc1cn2cc(NC(=O)c3ccc(N4CCN(C)CC4)cc3F)nc2c(C)n1 [Example 4, N-(6,8-dimethyl-imidazo[1,2-a]-pyrazin-2-yl)-2-fluoro-4-(4-methylpiperazin-1-yl)benzamide] | 0.5614 | 1.769 | 0.232
Cc1cn2cc(NC(=O)c3ccc(N4CCNCC4)nc3OCC(F)(F)F)cc(F)c2n1 [Example 73, N-(8-fluoro-2-methylimidazo[1,2-a]pyridin-6-yl)-6-(piperazin-1-yl)-2-(2,2,2-trifluoro-ethoxy)nicotinamide] | 0.7589 | 1.5775 | 0.062
Cc1cn2cc(NC(=O)c3ccc(N4CCNCC4)cc3)nc2c(C)n1 [Example 1, N-(6,8-dimethylimidazo[1,2-a]pyrazin-2-yl)-4-(piperazin-1-yl)benzamide] | 0.7747 | 1.6736 | 0.0316
Cc1nc2c(F)cc(NC(=O)c3ccc(N4CC(C)NC(C)C4)nc3)cc2o1 (stereo not drawn) [Example 23, 6-(3,5-dimethyl-piperazin-1-yl)-N-(4-fluoro-2-methylbenzo[d]-oxazol-6-yl)-nicotinamide] | 0.5092 | 1.6942 | 0.201
COc1nc(N2CCNC(C)(C)C2)ccc1C(=O)Nc1cc(F)c2nc(C)cn2c1 [Example 75, 6-(3,3-dimethyl-piperazin-1-yl)-N-(8-fluoro-2-methyl-imidazo[1,2-a]-pyridin-6-yl)-2-methoxynicotinamide] | 0.3061 | 1.7035 | 0.0654
Cc1cn2cc(NC(=O)c3ccc(N4CCNC(C)C4)nc3)ccc2n1 (racemic) [Example 12, rac-N-(2-methyl-imidazo[1,2-a]-pyridin-6-yl)-6-(3-methyl-piperazin-1-yl)nicotinamide] | 0.7037 | 1.6512 | 0.312
Cc1nc2c(F)cc(NC(=O)c3ccc(N4CCNCC4)cc3F)cc2o1 [Example 58, 2-fluoro-N-(4-fluoro-2-methyl-benzo[d]oxazol-6-yl)-4-(piperazin-1-yl)benzamide] | 0.1159 | 1.7744 | 0.0398
Cc1cn2cc(NC(=O)c3ccc(N4CCNC(C)C4)nc3)cc(Cl)c2n1 (racemic) [Example 55, rac-N-(8-chloro-2-methylimidazo[1,2-a]pyridin-6-yl)-6-(3-methylpiperazin-1-yl)nicotinamide dihydrochloride] | 0.7112 | 1.8752 | 0.141

Reference: patent US10501482B2, “Compounds for treating spinal muscular atrophy” (Hoffmann-La Roche Inc., priority 2013, dated 2019)
